Data from US20130296311A1, “INHIBITORS OF HCV NS5A” (PRESIDIO PHARMACEUTICALS, INC., priority 2010, published 2013).

tested on: HCV 1b_Huh-Luc/Neo-ET cell line persistently expressing a bicistronic genotype 1b replicon in Huh 7 cells; experiment: HCV replicon assay (luciferase readout, 72 h); format: cell-based, HCV genotype 1b; details: Hepatitis C virus, Huh-7, 72 h, read-out: Inhibition of HCV genotype 1b
In short: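 EC50 values come from a four-parameter fit of luciferase signal as % of untreated control, repeated across several determinations. The signal is from the HCV 1b_Huh-Luc/Neo-ET replicon line, dosed in triplicate one day post-plating and incubated 72 h before Bright-Glo readout.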

| Structure (SMILES) | EC50 |
| --- | --- |
| CC(C)(C)OC(=O)N[C@@H](C(=O)N1CCC[C@H]1C(=O)NCCc1ccc(C#Cc2cnc([C@@H]3CCCN3C(=O)[C@H](NC(=O)OC(C)(C)C)c3ccccc3)[nH]2)cc1)c1ccccc1 [Compound 124] | < 1 nM |
| CC(C)(C)OC(=O)N[C@@H](C(=O)N1CCC[C@H]1c1ncc(C#Cc2ccc(-c3ccc(-c4cnc([C@@H]5CCCN5C(=O)[C@H](NC(=O)OC(C)(C)C)c5ccccc5)[nH]4)cc3)cc2)[nH]1)c1ccccc1 [Compound 757] | < 1 nM |
| COC(=O)N[C@@H](C(=O)N1CCC[C@H]1c1ncc(-c2ccc(C#Cc3ccc(-c4cnc([C@@H]5CCCN5C(=O)[C@H](NC(=O)N5CCC[C@H]5CO)c5ccccc5)[nH]4)cc3)cc2)[nH]1)c1ccccc1 [Compound 255] | < 1 nM |
| CCN(CC)[C@@H](C(=O)N1CCC[C@H]1c1ncc(-c2ccc(-c3ccc(C#Cc4cnc([C@@H]5CCCN5C(=O)[C@H](NC(=O)OC)c5ccccc5)[nH]4)cc3)cc2)[nH]1)c1ccccc1 [Compound 751] | < 1 nM |
| COC(=O)N[C@H](C(=O)N1CCC[C@H]1c1ncc(-c2ccc(C#Cc3ccc4c(c3)CCCc3nc([C@@H]5CCCN5C(=O)[C@@H](NC(=O)OC)C(C)C)[nH]c3-4)cc2)[nH]1)C(C)C [Compound 1096] | < 1 nM |
| COC(=O)N[C@H](C(=O)N1CCC[C@H]1c1ncc(-c2ccc(C#Cc3ccc(-c4cnc([C@H](C)NC(=O)[C@@H](C(C)C)N(C)C)[nH]4)cc3)cc2)[nH]1)C(C)C [Compound 982] | 10 to 999 nM |
| CC(C)[C@@H](NC(=O)OC(C)(C)C)C(=O)N1CCC[C@H]1C(=O)NCc1ccc(C#Cc2cnc([C@@H]3CCCN3C(=O)[C@H](NC(=O)OC(C)(C)C)C(C)C)[nH]2)cc1 [Compound 120] | 10 to 999 nM |
| O=C(N[C@@H](C(=O)N1CCC[C@H]1c1cc(-c2ccc(C#Cc3ccc(-c4cnc([C@@H]5CCCN5C(=O)[C@H](NC(=O)N5CCOCC5)c5ccccc5)[nH]4)cc3)cc2)n[nH]1)c1ccccc1)N1CCOCC1 [Compound 220] | < 1 nM |
| COC(=O)N[C@H](C(=O)N1CCC[C@H]1c1nc2ccc(C#Cc3ccc(-c4cnc([C@@H]5CCCN5C(=O)[C@H](NC(=O)OC)C(C)C)[nH]4)cc3)cc2[nH]1)C(C)C [Compound 1053] | < 1 nM |
| CS(=O)(=O)N[C@@H](C(=O)N1CCC[C@H]1c1ncc(-c2ccc(C#Cc3ccc(-c4cnc([C@@H]5CCCN5C(=O)[C@@H](c5ccccc5)N5CCCCC5)[nH]4)cc3)cc2)[nH]1)c1ccccc1 [Compound 231] | < 1 nM |
| COC(=O)N[C@H](C(=O)N1CCC[C@H]1c1ncc(-c2ccc(C#Cc3ccc4nc([C@@H]5CCCN5C(=O)[C@@H](NC(=O)OC)C5CC5)[nH]c4c3)cc2)[nH]1)C1CC1 [Compound 1029] | < 1 nM |
| COC(=O)N[C@@H](C(=O)N1CCC[C@H]1c1ncc(-c2ccc(C#Cc3ccc(-c4cnc([C@@H]5CCCN5C(=O)[C@H]5CCCN5C)[nH]4)cc3)cc2)[nH]1)c1ccccc1 [Compound 187] | < 1 nM |
| CC(C)[C@H](NC(=O)N1CCC(O)CC1)C(=O)N1CCC[C@H]1c1ncc(-c2ccc(C#Cc3ccc(-c4cnc([C@@H]5CCCN5C(=O)[C@@H](NC(=O)N5CCC(O)CC5)C(C)C)[nH]4)cc3)cc2)[nH]1 [Compound 286] | > 1000 nM |
| COC(=O)N[C@H](C(=O)N1CCC[C@H]1c1ncc(-c2ccc(C#Cc3ccc(-c4cnc([C@@H]5CCCN5C(=O)[C@H](NC(=O)N5CC[C@@H](O)C5)c5ccccc5)[nH]4)cc3)cc2)[nH]1)C(C)C [Compound 975] | < 1 nM |
| COC(=O)N[C@@H](C)C(=O)N1CCC[C@H]1c1ncc(-c2ccc(C#Cc3ccc(-c4cnc([C@@H]5CCCN5C(=O)[C@H](C)NC(=O)OC)[nH]4)cc3)cc2)[nH]1 [Compound 962] | < 1 nM |
| COC(=O)N[C@H](C(=O)N1CCC[C@H]1c1ncc(-c2ccc3nc(C#Cc4ccc5nc([C@@H]6CCCN6C(=O)[C@@H](NC(=O)OC)C6CCOCC6)[nH]c5c4)ccc3c2)[nH]1)C1CCOCC1 [Compound 1108] | < 1 nM |
| COC(=O)N[C@H](C(=O)N1CCC[C@H]1c1ncc(-c2ccc(C#Cc3ccc(-c4cnc([C@@H]5CCCN5C(=O)[C@H](NC(=O)N(CCO)CCO)c5ccccc5)[nH]4)cc3)cc2)[nH]1)C(C)C [Compound 973] | < 1 nM |
| COC(=O)N[C@@H](C(=O)N1CCC[C@H]1c1ncc(-c2ccc(C#Cc3ccc(-c4cnc([C@@H]5CCCN5C(=O)[C@H](NC(=O)OC)[C@H](C)OC)[nH]4)cc3)cc2)[nH]1)[C@H](C)OC [Compound 977] | 10 to 999 nM |
| CC(C)(C)OC(=O)NCC(=O)N1CCC[C@H]1c1ncc(C#Cc2ccc(-c3cnc([C@@H]4CCCN4C(=O)CNC(=O)OC(C)(C)C)[nH]3)cc2)[nH]1 [Compound 103] | 10 to 999 nM |
| O=C(N[C@@H](C(=O)N1CCC[C@H]1c1ncc(C#Cc2ccc(-c3ccc(-c4cnc([C@@H]5CCCN5C(=O)[C@H](NC(=O)N5CC[C@@H](O)C5)c5ccccc5)[nH]4)cc3)cc2)[nH]1)c1ccccc1)N1CC[C@@H](O)C1 [Compound 763] | < 1 nM |
| COC(=O)N[C@@H](CC(=O)O)C(=O)N1CCC[C@H]1c1ncc(-c2ccc(C#Cc3ccc4nc([C@@H]5CCCN5C(=O)[C@H](CC(=O)O)NC(=O)OC)[nH]c4c3)cc2)[nH]1 [Compound 1061] | 10 to 999 nM |
| CC(C)[C@@H](NC(=O)OC(C)(C)C)C(=O)N1CCC[C@H]1c1ncc(C#Cc2ccc(C#Cc3cnc([C@@H]4CCCN4C(=O)[C@H](NC(=O)OC(C)(C)C)C(C)C)[nH]3)cc2)[nH]1 [Compound 301] | > 1000 nM |
| COC(=O)N[C@H](C(=O)N1CCC[C@H]1c1ncc(-c2ccc(C#Cc3ccc(-c4cnc([C@@H]5CCCN5C(=O)[C@H](NC(=O)OC)c5ccccc5)[nH]4)cc3)cc2)[nH]1)C(C)C [Compound 1002] | < 1 nM |
| O=C(N[C@@H](C(=O)N1CCC[C@H]1c1ncc(C#Cc2ccc(-c3ccc(-c4cnc([C@@H]5CCCN5C(=O)[C@H](NC(=O)C5CC5)c5ccccc5)[nH]4)cc3)cc2)[nH]1)c1ccccc1)C1CC1 [Compound 760] | < 1 nM |

same assay, conditions: Hepatitis C virus, Huh-7, read-out: Inhibition of HCV genotype 1b

| Structure (SMILES) | EC50 |
| --- | --- |
| COC(=O)N[C@@H](C(=O)N1CCN(C(C)=O)C[C@H]1c1ncc(-c2ccc(C#Cc3ccc4nc([C@@H]5CCCN5C(=O)[C@H](NC(=O)OC)c5ccccc5)[nH]c4c3)cc2)[nH]1)c1ccccc1 [Compound 1233] | < 1 nM |
| COC[C@H](NC(=O)OC)C(=O)N1CCC[C@H]1c1ncc(-c2ccc(C#Cc3ccc4nc([C@@H]5CCCN5C(=O)[C@@H](NC(=O)OC)C(C)C)[nH]c4c3)cc2)[nH]1 [Compound 1236] | < 1 nM |
| COC(=O)N[C@H](C(=O)N1CCC[C@H]1CNC(=O)c1ccc(C#Cc2ccc3nc([C@@H]4CCCN4C(=O)[C@@H](NC(=O)OC)C(C)C)[nH]c3c2)cn1)C(C)C [Compound 1240] | 10 to 999 nM |
| COC(=O)N[C@H](C(=O)N1CCC[C@H]1c1nc2ccc(C#Cc3ccc4c(ccc5nc([C@@H]6CCCN6C(=O)[C@@H](NC(=O)OC)[C@@H](C)OC)[nH]c54)c3)cc2[nH]1)C(C)C [Compound 1286] | < 1 nM |
| COC(=O)N[C@H](C(=O)N1CCC[C@H]1c1nc2ccc3cc(C#Cc4ccc5nc([C@@H]6CCCN6C(=O)[C@H](NC(=O)OC6CCOCC6)c6ccccc6)[nH]c5c4)ccc3c2[nH]1)C(C)C [Compound 1276] | < 1 nM |
| COC(=O)NC(C(=O)N1CCC[C@H]1c1nc2ccc(C#Cc3ccc4cc(-c5cnc([C@@H]6CCCN6C(=O)[C@H](NC(=O)OC)c6ccccc6)[nH]5)ccc4n3)cc2[nH]1)C(C)C (stereo partly drawn) [Compound 1289] | < 1 nM |
